Test: recombinant UMI read abundance after kanamycin selection (control-corrected) (log10(CPM+1)); higher = more efficient recombination; extreme values may be limits of the assay; sequences stand for … in AGTGCAGAGAAAATCGGCCAGTTTTCTCTGCCTGCAGTCCGCATGCCGTGGGACCCCTTGGGTTCTAACCTGTTGCCTAGATTTATGCAGCGGACTGCCTTTCTCCCAAAGTGATAAACCGG…AGGTTGGTTTCACT; site = the 11-nt donor
Outline: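 Values are reported as log10(CPM+1), obtained by converting sequencing counts to CPM, averaging replicates and scaling by control-derived factors. The counts came from recombinant UMIs amplified by PCR across the donor–target junction. These UMIs came from a pooled Escherichia coli screen of donor and donor-binding-loop pairs for the IS621 bridge recombinase, plated with IPTG (0.07 mM) plus kanamycin or left unselected, in two replicates each.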
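Further: IS621 bridge recombinase in Escherichia coli cells against a fixed T5 target plasmid.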

“CAGTCGACATGGACCGGTTTTCCCGGTAATCCGTATTTGGG (site CGGTCGACTCC)” and “CAGTCGACATGGACCGGTTTTCCCGGTAATCCGTATTTGGG (site CTGTCGACTCC)” are within 0.2 log units of each other in “recombinant UMI read abundance (log10)” value: 0.0115 for the first, 0.0261 for the second.

“CAGTCGACATGGACCGGTTTTCCCGGTAATCCGTATTTGGG (site GAGTCGACTCC)” and “CAGTCGACATGGACCGGTTTTCCCGGTAATCCGTATTTGGG (site TAGTCGACTCC)” are within 0.2 log units of each other in “recombinant UMI read abundance (log10)” value: 0.0417 for the first, 0.01 for the second.

“CAGTCTACATGGACCGGTTTTCCCGGTAATCCGTATTTGGG (site CAGTCAACTCC)” and “CAGTCTACATGGACCGGTTTTCCCGGTAATCCGTATTTGGG (site CAGTCCACTCC)” are within 0.2 log units of each other in “recombinant UMI read abundance (log10)” value: 0.0237 for the first, 0.0106 for the second.

“CAGTCTACATGGACCGGTTTTCCCGGTAATCCGTATTTGGG (site CAGTCGACTCC)” and “CAGTCTACATGGACCGGTTTTCCCGGTAATCCGTATTTGGG (site CAGTCTACTCC)” are within 0.2 log units of each other in “recombinant UMI read abundance (log10)” value: 0.00653 for the first, 0.0109 for the second.

Going from “CAGTTATCATGGACCGGTTTTCCCGGTAATCCGTATTTGTG (site CAGTTATCTCA)” to “CAGTTGGCATGGACCGGTTTTCCCGGTAATCCGTATTTGTG (site CAGTTGGCTCA)”, the “recombinant UMI read abundance (log10)” value falls from 3.18 to 1.47.

First: CATAACGCATGGACCGGTTTTCCCGGTAATCCGTATTTGGG (site CATAACGCTCC)
Second: CATAACGCATGGACCGGTTTTCCCGGTAATCCGTATTTGTG (site TGAGGGCCTGC)
The “recombinant UMI read abundance (log10)” value of the first is higher: 0.802 for the first, 0 for the second.

First: CATAGCCCATGGACCGGTTTTCCCGGTAATCCGTATTTGCC (site CATAGCCCTGG)
Second: CATAGGGCATGGACCGGTTTTCCCGGTAATCCGTATTTGTC (site CATAGGGCTGA)
The “recombinant UMI read abundance (log10)” value of the first is lower: 0 for the first, 2.5 for the second.

First: CATATCCCATGGACCGGTTTTCCCGGTAATCCGTATTTGCG (site CATATCCCTCG)
Second: CATATCTCATGGACCGGTTTTCCCGGTAATCCGTATTTGAC (site CATATCTCTGT)
The “recombinant UMI read abundance (log10)” value of the first is lower: 0.847 for the first, 2.52 for the second.

First: CATATTCCATGGACCGGTTTTCCCGGTAATCCGTATTTGCT (site CATATTCCTAG)
Second: CATCAGTCATGGACCGGTTTTCCCGGTAATCCGTATTTGAT (site CATCAGTCTAT)
The “recombinant UMI read abundance (log10)” value of the first is lower: 0 for the first, 2.04 for the second.

Compared with “CATCATGCATGGACCGGTTTTCCCGGTAATCCGTATTTGTT (site CATCATGCTAA)”, “CATCCGGCATGGACCGGTTTTCCCGGTAATCCGTATTTGTC (site CATCCGGCTGA)” is lower in “recombinant UMI read abundance (log10)” value: 1.58 for the first, 0.293 for the second.

First: CATCGTTCATGGACCGGTTTTCCCGGTAATCCGTATTTGCA (site CATCGTTCTTG)
Second: CATCTCGCATGGACCGGTTTTCCCGGTAATCCGTATTTGCA (site CATCTCGCTTG)
The “recombinant UMI read abundance (log10)” value of the first is higher: 2.25 for the first, 0.985 for the second.

Compared with “CATCTGCCATGGACCGGTTTTCCCGGTAATCCGTATTTGCC (site CATCTGCCTGG)”, “CATGCAGCATGGACCGGTTTTCCCGGTAATCCGTATTTGAG (site CATGCAGCTCT)” is higher in “recombinant UMI read abundance (log10)” value: 0 for the first, 1.51 for the second.

Compared with “CATGCCCCATGGACCGGTTTTCCCGGTAATCCGTATTTGGG (site CATGCCCCTCC)”, “CATGGAACATGGACCGGTTTTCCCGGTAATCCGTATTTGTT (site CATGGAACTAA)” is higher in “recombinant UMI read abundance (log10)” value: 0.00831 for the first, 1.85 for the second.

“CATGGAACATGGACCGGTTTTCCCGGTAATCCGTATTTGTT (site CCTGGAACTAA)” and “CATGGAACATGGACCGGTTTTCCCGGTAATCCGTATTTGTT (site CGTGGAACTAA)” are within 0.2 log units of each other in “recombinant UMI read abundance (log10)” value: 0.00373 for the first, 0.0146 for the second.

“CATGGAACATGGACCGGTTTTCCCGGTAATCCGTATTTGTT (site CTTGGAACTAA)” and “CATGGACCATGGACCGGTTTTCCCGGTAATCCGTATTTGGG (site CATGGACCTCC)” are within 0.2 log units of each other in “recombinant UMI read abundance (log10)” value: 0.00575 for the first, 0.0171 for the second.

Going from “CATGTAACATGGACCGGTTTTCCCGGTAATCCGTATTTGGG (site CATGTAACTCC)” to “CATTAAACATGGACCGGTTTTCCCGGTAATCCGTATTTGCC (site CATTAAACTGG)”, the “recombinant UMI read abundance (log10)” value rises from 0.209 to 1.51.

Going from “CATTACCCATGGACCGGTTTTCCCGGTAATCCGTATTTGCC (site CATTACCCTGG)” to “CATTAGACATGGACCGGTTTTCCCGGTAATCCGTATTTGAG (site CATTAGACTCT)”, the “recombinant UMI read abundance (log10)” value rises from 0 to 1.89.

Compared with “CATTAGACATGGACCGGTTTTCCCGGTAATCCGTATTTGAG (site CCTTAGACTCT)”, “CATTAGACATGGACCGGTTTTCCCGGTAATCCGTATTTGAG (site CGTTAGACTCT)” is lower in “recombinant UMI read abundance (log10)” value: 0.769 for the first, 0.492 for the second.

Going from “CATTAGACATGGACCGGTTTTCCCGGTAATCCGTATTTGAG (site CTTTAGACTCT)” to “CATTAGGCATGGACCGGTTTTCCCGGTAATCCGTATTTGCT (site CATTAGGCTAG)”, the “recombinant UMI read abundance (log10)” value rises from 0.0129 to 1.54.

Compared with “CATTATGCATGGACCGGTTTTCCCGGTAATCCGTATTTGGA (site AATTATGCTTC)”, “CATTATGCATGGACCGGTTTTCCCGGTAATCCGTATTTGGA (site CATTATGCTTC)” is higher in “recombinant UMI read abundance (log10)” value: 0.0205 for the first, 1.07 for the second.

“CATTATGCATGGACCGGTTTTCCCGGTAATCCGTATTTGGA (site GATTATGCTTC)” and “CATTATGCATGGACCGGTTTTCCCGGTAATCCGTATTTGGA (site TATTATGCTTC)” are within 0.2 log units of each other in “recombinant UMI read abundance (log10)” value: 0.00887 for the first, 0.208 for the second.

Going from “CATTCAGCATGGACCGGTTTTCCCGGTAATCCGTATTTGCA (site CATTCAGCTTG)” to “CATTCATCATGGACCGGTTTTCCCGGTAATCCGTATTTGCT (site CATTCATCTAG)”, the “recombinant UMI read abundance (log10)” value rises from 1.05 to 1.4.

Compared with “CATTCATCATGGACCGGTTTTCCCGGTAATCCGTATTTGCT (site CGATCATCTAG)”, “CATTCGCCATGGACCGGTTTTCCCGGTAATCCGTATTTGAG (site CATTCGCCTCT)” is lower in “recombinant UMI read abundance (log10)” value: 0.633 for the first, 0.00436 for the second.

Compared with “CATTCGGCATGGACCGGTTTTCCCGGTAATCCGTATTTGCA (site CATTCGGCTTG)”, “CATTGAGCATGGACCGGTTTTCCCGGTAATCCGTATTTGTA (site CATTGAGCTTA)” is higher in “recombinant UMI read abundance (log10)” value: 1.15 for the first, 2.06 for the second.

First: CATTGCCCATGGACCGGTTTTCCCGGTAATCCGTATTTGAC (site CATTGCCCTGT)
Second: CATTTGGCATGGACCGGTTTTCCCGGTAATCCGTATTTGCT (site CATTTGGCTAG)
The “recombinant UMI read abundance (log10)” value of the first is higher: 0.844 for the first, 0 for the second.

“CATTTGGCATGGACCGGTTTTCCCGGTAATCCGTATTTGCT (site CCTTTGGCTAG)” and “CATTTGGCATGGACCGGTTTTCCCGGTAATCCGTATTTGCT (site CGTTTGGCTAG)” are the same in “recombinant UMI read abundance (log10)” value: 0 for the first, 0 for the second.

Going from “CATTTGGCATGGACCGGTTTTCCCGGTAATCCGTATTTGCT (site CTTTTGGCTAG)” to “CATTTGGCATGGACCGGTTTTCCCGGTAATCCGTATTTGGA (site CAATTGGCTTC)”, the “recombinant UMI read abundance (log10)” value rises from 0.00821 to 0.313.

“CATTTGGCATGGACCGGTTTTCCCGGTAATCCGTATTTGGA (site CACTTGGCTTC)” and “CATTTGGCATGGACCGGTTTTCCCGGTAATCCGTATTTGGA (site CAGTTGGCTTC)” are within 0.2 log units of each other in “recombinant UMI read abundance (log10)” value: 0.438 for the first, 0.466 for the second.

With “CATTTGGCATGGACCGGTTTTCCCGGTAATCCGTATTTGGA (site CATTTGGCTTC)” the “recombinant UMI read abundance (log10)” value was 0.328.
